Measured values reported in US10426775B2, “Methods for treating Friedreich's ataxia with etravirine” (Fratagene Therapeutics srl, priority 2017, dated 2019).

Tested on: aconitase
Test: Aconitase activity in FRDA lymphoblast extracts (spectrophotometric, 340 nm)
Format: cell-based, human
Conditions: GM16214 lymphoblasts, 500 nM etravirine, after 48 hours, compared with GM16215
Description: Whole-cell extracts from GM16215 lymphoblasts, GM16214 lymphoblasts and GM16214 lymphoblasts treated with etravirine were prepared in ice-cold CelLytic M buffer (Sigma-Aldrich) supplemented with 2 mM sodium citrate and Complete EDTA-free protease inhibitor cocktail (Roche Diagnostic). Spectrophotometric aconitase assays were performed at 25° C. with 100 μg of cell extracts using the BIOXYTECH Aconitase-340™ Assay (OxisResearch™ 21041). Spectrophotometric citrate synthase activities were assessed at 25° C. with 10-20 μg of cell extracts using the Citrate Synthase Assay Kit (Sigma-Aldrich CS0720). […] For the calculation of the activities, one unit of enzyme was expressed as the amount of protein that converted 1 μmol of substrate per minute at 25° C. Quantitative data are presented as mean±SEM of at least three independent experiments.
To further explore the therapeutic potential of etravirine, we considered its ability to correct some of the defects associated with frataxin loss in cells derived from patients. […] To evaluate whether the increase in frataxin levels promoted by etravirine treatment is sufficient to restore ISC biogenesis in FRDA patient-derived cells, we measured the activity of aconitase upon etravirine treatment and compared it to the activity observed in cells derived from the healthy carrier parent. […]

For `Cc1cc(C#N)cc(C)c1Oc1nc(Nc2ccc(C#N)cc2)nc(N)c1Br` [etravirine], the “aconitase activity in FRDA cells” value was “restore aconitase activity”.
